# What was measured:
# [1] = Reduction of wrinkle intensity (clinical study); assay type: in vivo, human
# Method: (§1) The study was conducted with 26 female volunteers of age 53 +/−3 years. The application was done twice daily for two months. On one side of the face, the product is applied, on the other side the placebo.
# Imaging: The evaluation is based on high-resolution digital photography under controlled conditions. Pictures were taken at the start of the study, after 28 days and after 56 days of product application.
# The subjects were positioned in front of the optical arrangement and the face was photographed as portrait or close-up. The persons were photographed seated at controlled lighting. The conditions were kept constant during all photographs to ensure comparability.
# Reduction of wrinkles and lines: The assessment of wrinkles and lines was done in a limited area around the eye of the subject. The intensity of the wrinkles and lines was measured as parameter R. The larger the value for R, the more pronounced are the wrinkles and lines. The relative reduction of wrinkles is calculated according to the following formula:
# R%=100(Ri−RF)/Ri(R=wrinkle intensity, i=initial; f=final)
# Data analysis and interpretation: For data analysis the following software packages were used: […]
# human skin explants [2] = assay: Protection against carbonylation of proteins (ex vivo study); assay type: cell-based; details: UV stimulated skin treated with 0.2% and 0.5%, vs untreated UV stimulated skin; FIG. 9
# Method: Detection of carbonylation: After removing the fatty and connective tissue, the frozen skin samples are weighed and cut. The skin pieces of the tested samples are combined and homogenized in a cold extraction buffer. Cell lysates are collected by centrifugation.
# The measurement of the carbonylated protein is performed with the “OxyBlot Protein_Oxidation Kit by Millipore”, (#S7150) according to the protocol of the producer. Only the protein bands of a size between 50 kDa and 150 kDa were taken into account for the calculation. The obtained amount of carbonylated protein is normalized with the actin band (which is constant) and given with respect to the non-treated sample.
# human skin explants [3] = assay: Reduction of ROS score after UVA irradiation on human skin explants (ex vivo study); assay type: cell-based; details: topical, 18 h incubation, vs untreated UV irradiated skin, FIG. 6
# Description: Cultivation of skin models: The skin was cut into about 8×3 mm large pieces (diameter×layer thickness of the models) and cultivated until the planned end of the experiment. Per treatment, six models each were used. The skin models were cultivated as air-liquid-interface cultures in a perforated stainless steel ring with contact to the culture medium (modified Williams 'E Medium) until the desired endpoint.
# Treatment: Test substances and controls were applied topically. To this end, the skin models were carefully cleaned with a cotton pad. Subsequently, 4 μL of each test substance or the control, respectively, were applied to the models and covered with a membrane filter (diameter=6 mm).
# The skin models were incubated for 18 h with test substance and positive control, respectively. […]
# UV-irradiation: The used sun simulator was a BIO-SUN-system from the company Vilber Lourmat. […] The UV-light emission is constantly monitored and the system stops automatically when the pre-set energy quantity is reached. […]
# Of each skin model, two samples were used for image capture with the fluorescence analysis. Each picture was analyzed by determining the fluorescence using Image-J analysis software (NIH, USA). The measured values were normalized over the size of the selected surface.
# Statistics: For each treatment of the skin models, the averages of the quantitative data was determined. […]
# collagen Typ III = assay: Stimulation of collagen Type III (ex vivo study); assay type: cell-based; details: vs untreated skin; FIG. 12
# Method: (§2) 4 μl of β-L-aspartyl-L-arginine were applied on the skin every day during 6 days of treatment at 37° C., 5% CO2 and 100% humidity. 12 skin cuts were immunohistochemically stained with selected antibodies. The papillary dermis was selected for the analysis because it is the part of the dermis, which changes the most in reaction to a previous treatment.
# (§3) The area to be analyzed was carefully selected while it was made sure that irregular structures such as blood vessels, sweat glands or hair follicles were avoided.
# (§4) For the assessment of the results, both, the color intensity and the color distribution were measured using Image-J analysis software (NIH, USA)—thus a semi-quantitative assessment was possible.
# senescent fibroblasts [4] = assay: Reduction of mitochondrial ROS in senescent fibroblasts (in vitro study); assay type: cell-based
# Method: Using a fluorescent dye, the antioxidative potential of β-L-aspartyl-L-arginine with respect to mitochondrial reactive oxygen species (ROS) was quantified. Senescent cells were incubated with β-L-aspartyl-L-arginine for 24 hours. Subsequently, the treated and non-treated senescent cells as well as the treated and non-treated non-senescent cells were incubated with the fluorescent dye for 30 minutes at 37° C. After washing, a portion of the non-senescent cells was treated with the oxidative reference substance H2O2 (100 μM). The mitochondrial ROS production was measured immediately every 5 mins over a period of 60 minutes. A microtiter plate reader (Varioskan-Thermo) was used as measuring device. During the kinetic measurement, the cells were further incubated at 37° C. Using fluorimetry, the antioxidative activity was measured in parallel with the viability of the cell. The experiments comprised a blank as well as a negative and a positive control. The positive control consists of […]. […] Senescent cells treated with resveratrol were used as reference for the comparison of the activity of β-L-aspartyl-L-arginine in the decrease of endogenous production of mitochondrial ROS in senescent cells. β-L-aspartyl-L-arginine was measured in a 4-fold measurement. […]
# senescent fibroblasts [5] = assay: Reduction of nucleus to cell size (N/C) ratio in senescent fibroblasts (in vitro study); assay type: cell-based; details: vs untreated senescent fibroblasts; FIG. 4
# Method: (§5) Senescent cells were incubated with β-L-aspartyl-L-arginine. Cell size and nuclear size were measured while cell density reflects the viability. […] See example 4 for the details of experimental procedure.
# (§6) The cells were treated with β-L-aspartyl-L-arginine for 5 days. The cell images were taken after incubation. In order to label the nuclear and mitochondrial DNA, the cells were incubated with a fluorescent dye for 30 minutes. After removal of the dye, the images were taken with an epifluorescence microscope. Image analysis was performed in a 3-fold determination. Sampling 10 pictures per experimental condition or repetition, respectively.
# (§7) Data collection: The images were taken with a Zeiss axioplan microscope. Image analysis was performed with a software developed by ICDD.
# (§8) Data interpretation: The following data was collected: average cell size, mtDNA content, mitochondrial density, mitochondrial biogenesis, mitochondrial mass and cell nucelus size. The average cell number per field was used as control of cell viability for each experimental condition. The effect of active substances was also given as protective effect in comparison to non-treated cells. The effect of the positive control was included for comparison.
# [6] = Improvement of skin firmness and elasticity (clinical study, cutometer); assay type: in vivo, human
# Method: as §1
# The method of measurement relies on suction. A vacuum is created in the gauge head of the cutometer, which sucks the skin into the measuring device. An optical arrangement, consisting of a light source and a light detector, measures the light intensity, which enters dependent on how much skin is sucked in. The resulting parameters are elasticity and skin firmness.
# Skin firmness represents the resistance, which the skin creates against the suction by the vacuum. Elasticity, is the time, which the skin needs to return to its original state.
# senescent fibroblasts [7] = assay: Reduction of cell size in senescent fibroblasts (in vitro study); assay type: cell-based; details: amounts of more than 1.0 mM, vs untreated senescent fibroblasts; FIG. 3
# Method: as §5, §6, §7, §8
# fibronectin = assay: Stimulation of fibronectin proteins in the dermis (ex vivo study); assay type: cell-based; details: 4 μl topically every day during 6 days, vs untreated skin; FIG. 7
# Method: as §2, §3, §4
# [8] = Solubility and stability of the powder; assay type: physicochemical
# senescent fibroblasts [9] = assay: Reduction of mitochondrial DNA (mtDNA) in senescent fibroblasts (in vitro study); assay type: cell-based; details: 5 days treatment; FIG. 5
# Method: Disruptions of the nuclear and mitochondrial DNA were studied, analyzed by detecting nucleus fragments, the mitochondrial DNA content, the mitochondrial mass and the average cell density, the latter as representation of viability.
# as §6, §7, §8
# [10] = after eight weeks, twice daily use of 0.1%
smiles,measurement,setting,value
N=C(N)NCCC[C@H](NC(=O)C[C@H](N)C(=O)O)C(=O)O [β-L-aspartyl-L-arginine],volunteers with significant reduction of wrinkle intensity,[1]; [10],85%
same,reduction of wrinkle intensity compared to a placebo,"[1]; after eight weeks, twice daily use of 0.1%, 26 female volunteers",6.8%
same,wrinkles and fine lines on crow feet,"[1]; four weeks of twice daily use of 0.1%, FIG. 8",visibly smoothes wrinkles and fine lines
same,formation of carbonylated proteins,human skin explants [2],prevent the formation of carbonylated proteins
same,ROS score of UV irradiated skin (dermis),human skin explants [3],significantly reduces the ROS score
same,collagen Typ III production,collagen Typ III,stimulate the collagen Typ III production
same,mitochondrial ROS (mtROS),"senescent fibroblasts [4]; 10 μM, 24 hours incubation, senescent cells vs non-treated senescent cells, FIG. 1",significant reduction of mitochondrial ROS
same,dosage dependence of the mtROS reduction effect,"senescent fibroblasts [4]; values with respect to untreated senescent cells = 100%, FIG. 2",Increasing amounts of β-L-aspartyl-L-arginine show a larger reduction
same,nucleus to cell size ratio in senescent fibroblasts,senescent fibroblasts [5],reduced compared to untreated senescent fibroblasts
same,enhancement of skin elasticity compared to the placebo,[6]; [10],+8.5%
same,enhancement of skin firmness compared to the placebo,[6]; [10],+10.1%
same,volunteers with significant enhancement of skin elasticity,[6]; [10],100%
same,volunteers with significant enhancement of skin firmness,[6]; [10],92%
same,skin firmness,"[6]; four weeks of twice daily use of 0.1%, FIG. 10",visibly improves skin firmness
same,skin elasticity,"[6]; four weeks of twice daily use of 0.1%, FIG. 11",visibly improves skin elasticity
same,cell size of senescent fibroblasts,senescent fibroblasts [7],reduce cell size
same,fibronectin production in the dermis,fibronectin,stimulate the fibronectin production
same,stability,"[8]; pH from 5 to 9, up to 50° C.",stable at a pH from 5 to 9 at up to 50 °C
same,water solubility,"[8]; white, odorless powder",water soluble
same,mtDNA in senescent cells,senescent fibroblasts [9],reduced by β-L-aspartyl-L-arginine to an amount comparable to young replicative cells

# Source: patent publication US20220323536A1, “USE OF BETA-L-ASPARTYL-L-ARGININE ON SENESCENT SKIN” (SYMRISE AG, priority 2019, published 2022)
